This note sets out measurements from ChEMBL document CHEMBL5678812, “Inhibitors of p21-activated kinases (PAKs)” (J Med Chem, 2015).

Assay [1] concerns the target Tyrosine-protein kinase ITK/TSK (Homo sapiens) (UniProt Q08881). Briefly: Inhibition of Itk (unknown origin) at 0.1 uM relative to control.
The target of assay [2] is Serine/threonine-protein kinase Nek2 (Homo sapiens) (UniProt P51955). Kind of assay: Inhibition of NEK2 (unknown origin) at 0.1 uM relative to control.
The target of assay [3] is Serine/threonine-protein kinase 3 (Homo sapiens) (UniProt Q13188). Briefly: Inhibition of MST2 (unknown origin) at 0.1 uM relative to control.
Assay [4] concerns the target Muscle, skeletal receptor tyrosine-protein kinase (Homo sapiens) (UniProt O15146). Kind of assay: Inhibition of MUSK (unknown origin) at 0.1 uM relative to control.
Assay [5] addresses G protein-coupled receptor kinase 3 (Homo sapiens) (UniProt P35626). Briefly: Inhibition of GRK3 (unknown origin) at 0.1 uM relative to control.
For assay [6], the target named is Protein kinase C delta type (Homo sapiens) (UniProt Q05655). Briefly: Inhibition of PKCdelta (unknown origin) at 0.1 uM relative to control.
The target in assay [7] is Protein kinase C zeta type (Homo sapiens) (UniProt Q05513). Kind of assay: Inhibition of PKCzeta (unknown origin) at 0.1 uM relative to control.
The target of assay [8] is Serine/threonine-protein kinase 25 (Homo sapiens) (UniProt O00506). Kind of assay: Inhibition of YSK1 (unknown origin) at 0.1 uM relative to control.
Assay [9] addresses Ephrin type-A receptor 8 (Homo sapiens) (UniProt P29322). Briefly: Inhibition of EphA8 (unknown origin) at 0.1 uM relative to control.
In assay [10] the target is Tyrosine-protein kinase receptor TYRO3 (Homo sapiens) (UniProt Q06418). Briefly: Inhibition of Rse (unknown origin) at 0.1 uM relative to control.
The target in assay [11] is Interleukin-1 receptor-associated kinase 4 (Homo sapiens) (UniProt Q9NWZ3). Briefly: Inhibition of IRAK4 (unknown origin) at 0.1 uM relative to control.
Assay [12] addresses Mitogen-activated protein kinase 12 (Homo sapiens) (UniProt P53778). Briefly: Inhibition of p38gamma (unknown origin) at 0.1 uM relative to control.
Assay [13] deals with Protein kinase C theta type (Homo sapiens) (UniProt Q04759). Kind of assay: Inhibition of PKCtheta (unknown origin) at 0.1 uM relative to control.
The target in assay [14] is Tyrosine-protein kinase receptor UFO (Homo sapiens) (UniProt P30530). Briefly: Inhibition of Axl (unknown origin) at 0.1 uM relative to control.
In assay [15] the target is Rho-associated protein kinase 1 (Homo sapiens) (UniProt Q13464). Kind of assay: Inhibition of ROCK1 (unknown origin) at 0.1 uM relative to control.
Assay [16] concerns the target Dual specificity tyrosine-phosphorylation-regulated kinase 1A (Homo sapiens) (UniProt Q13627). Briefly: Inhibition of DYRK1A (unknown origin) at 0.1 uM relative to control.
The target in assay [17] is Non-receptor tyrosine-protein kinase TYK2 (Homo sapiens) (UniProt P29597). Kind of assay: Inhibition of TYK2 (unknown origin) at 0.1 uM relative to control.
The target in assay [18] is Serine/threonine-protein kinase PLK1 (Homo sapiens) (UniProt P53350). Briefly: Inhibition of PLK1 (unknown origin) at 0.1 uM relative to control.
For assay [19], the target named is Fibroblast growth factor receptor 4 (Homo sapiens) (UniProt P22455). Briefly: Inhibition of FGFR4 (unknown origin) at 0.1 uM relative to control.
Assay [20] concerns the target Eukaryotic elongation factor 2 kinase (Homo sapiens) (UniProt O00418). Briefly: Inhibition of eEF-2K (unknown origin) at 0.1 uM relative to control.
The target of assay [21] is Phosphatidylinositol 4,5-bisphosphate 3-kinase catalytic subunit delta isoform (Homo sapiens) (UniProt O00329). Briefly: Inhibition of PI3Kdelta (unknown origin) at 0.1 uM relative to control.
The target of assay [22] is SRSF protein kinase 3 (Homo sapiens) (UniProt Q9UPE1). Kind of assay: Inhibition of MSSK1 (unknown origin) at 0.1 uM relative to control.
Assay [23] deals with MAP kinase-activated protein kinase 5 (Homo sapiens) (UniProt Q8IW41). Briefly: Inhibition of PRAK (unknown origin) at 0.1 uM relative to control.
For assay [24], the target named is Tyrosine-protein kinase CSK (Homo sapiens) (UniProt P41240). Briefly: Inhibition of CSK (unknown origin) at 0.1 uM relative to control.
Assay [25] addresses Ephrin type-B receptor 3 (Homo sapiens) (UniProt P54753). Kind of assay: Inhibition of EphB3 (unknown origin) at 0.1 uM relative to control.
For assay [26], the target named is Tyrosine-protein kinase Fgr (Homo sapiens) (UniProt P09769). Briefly: Inhibition of Fgr (unknown origin) at 0.1 uM relative to control.
In assay [27] the target is Dual specificity protein kinase CLK2 (Homo sapiens) (UniProt P49760). Kind of assay: Inhibition of CLK2 (unknown origin) at 0.1 uM relative to control.
Assay [28] concerns the target Dual specificity tyrosine-phosphorylation-regulated kinase 1B (Homo sapiens) (UniProt Q9Y463). Briefly: Inhibition of DYRK1B (unknown origin) at 0.1 uM relative to control.
Assay [29] addresses Calcium/calmodulin-dependent protein kinase type II subunit beta (Homo sapiens) (UniProt Q13554). Briefly: Inhibition of CaMKIIbeta (unknown origin) at 0.1 uM relative to control.
Assay [30] deals with G protein-coupled receptor kinase 5 (Homo sapiens) (UniProt P34947). Briefly: Inhibition of GRK5 (unknown origin) at 0.1 uM relative to control.
In assay [31] the target is Phosphorylase b kinase gamma catalytic chain, liver/testis isoform (Homo sapiens) (UniProt P15735). Briefly: Inhibition of PhKgamma2 (unknown origin) at 0.1 uM relative to control.
The target of assay [32] is Dual specificity protein kinase CLK1 (Homo sapiens) (UniProt P49759). Briefly: Inhibition of CLK1 (unknown origin) at 0.1 uM relative to control.
In assay [33] the target is Ribosomal protein S6 kinase alpha-1 (Homo sapiens) (UniProt Q15418). Briefly: Inhibition of Rsk1 (unknown origin) at 0.1 uM relative to control.
In assay [34] the target is Protein kinase C eta type (Homo sapiens) (UniProt P24723). Kind of assay: Inhibition of PKCeta (unknown origin) at 0.1 uM relative to control.
Assay [35] addresses Tyrosine-protein kinase Fes/Fps (Homo sapiens) (UniProt P07332). Briefly: Inhibition of Fes (unknown origin) at 0.1 uM relative to control.
Assay [36] concerns the target Receptor-interacting serine/threonine-protein kinase 2 (Homo sapiens) (UniProt O43353). Kind of assay: Inhibition of RIPK2 (unknown origin) at 0.1 uM relative to control.
The target in assay [37] is Serine/threonine-protein kinase 26 (Homo sapiens) (UniProt Q9P289). Kind of assay: Inhibition of MST4 (unknown origin) at 0.1 uM relative to control.
Assay [38] addresses cAMP-dependent protein kinase (PKA) (Homo sapiens) (UniProt P22694+P17612+P22612). Briefly: Inhibition of PKA (unknown origin) at 0.1 uM relative to control. In kind it is protein assay.
In a further assay the target is TAK1/TAB1 (Homo sapiens) (UniProt Q15750+O43318). Briefly: Inhibition of TAK1-TAB1 (unknown origin) at 0.1 uM relative to control. In kind it is protein-complex assay.

Each structure is given as a SMILES string.

Sequence of Non-receptor tyrosine-protein kinase TYK2 (Homo sapiens) (P29597 whole entry): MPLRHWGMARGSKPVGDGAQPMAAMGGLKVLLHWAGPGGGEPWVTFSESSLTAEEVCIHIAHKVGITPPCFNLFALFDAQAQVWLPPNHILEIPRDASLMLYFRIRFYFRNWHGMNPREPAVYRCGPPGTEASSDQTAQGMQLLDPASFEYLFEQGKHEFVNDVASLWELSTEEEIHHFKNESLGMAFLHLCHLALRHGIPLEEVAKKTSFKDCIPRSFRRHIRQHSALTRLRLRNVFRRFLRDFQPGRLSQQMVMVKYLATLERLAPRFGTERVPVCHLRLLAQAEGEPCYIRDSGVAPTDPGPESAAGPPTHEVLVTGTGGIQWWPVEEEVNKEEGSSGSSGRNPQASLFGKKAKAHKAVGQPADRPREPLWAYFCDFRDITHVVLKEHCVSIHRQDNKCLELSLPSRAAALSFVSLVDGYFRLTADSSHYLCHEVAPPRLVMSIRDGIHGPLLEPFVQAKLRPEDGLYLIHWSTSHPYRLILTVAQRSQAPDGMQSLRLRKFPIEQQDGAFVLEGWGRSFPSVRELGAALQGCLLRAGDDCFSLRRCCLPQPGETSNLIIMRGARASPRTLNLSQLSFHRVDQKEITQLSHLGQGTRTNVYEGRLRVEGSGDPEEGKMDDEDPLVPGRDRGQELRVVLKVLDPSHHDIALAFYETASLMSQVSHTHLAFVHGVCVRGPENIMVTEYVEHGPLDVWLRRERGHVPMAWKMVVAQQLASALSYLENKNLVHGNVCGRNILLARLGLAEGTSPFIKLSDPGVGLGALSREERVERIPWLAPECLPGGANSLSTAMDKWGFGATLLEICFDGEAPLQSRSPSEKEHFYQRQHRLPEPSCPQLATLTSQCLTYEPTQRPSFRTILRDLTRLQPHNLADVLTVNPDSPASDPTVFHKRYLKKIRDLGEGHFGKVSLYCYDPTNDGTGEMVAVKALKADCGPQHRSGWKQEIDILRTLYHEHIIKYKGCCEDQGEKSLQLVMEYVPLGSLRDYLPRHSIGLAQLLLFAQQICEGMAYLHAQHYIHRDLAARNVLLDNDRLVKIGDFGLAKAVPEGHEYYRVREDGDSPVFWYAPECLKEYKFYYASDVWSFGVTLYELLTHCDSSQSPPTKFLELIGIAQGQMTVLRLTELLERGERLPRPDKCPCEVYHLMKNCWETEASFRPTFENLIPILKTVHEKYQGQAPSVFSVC
Sequence of Phosphatidylinositol 4,5-bisphosphate 3-kinase catalytic subunit delta isoform (Homo sapiens) (O00329 whole entry, canonical isoform): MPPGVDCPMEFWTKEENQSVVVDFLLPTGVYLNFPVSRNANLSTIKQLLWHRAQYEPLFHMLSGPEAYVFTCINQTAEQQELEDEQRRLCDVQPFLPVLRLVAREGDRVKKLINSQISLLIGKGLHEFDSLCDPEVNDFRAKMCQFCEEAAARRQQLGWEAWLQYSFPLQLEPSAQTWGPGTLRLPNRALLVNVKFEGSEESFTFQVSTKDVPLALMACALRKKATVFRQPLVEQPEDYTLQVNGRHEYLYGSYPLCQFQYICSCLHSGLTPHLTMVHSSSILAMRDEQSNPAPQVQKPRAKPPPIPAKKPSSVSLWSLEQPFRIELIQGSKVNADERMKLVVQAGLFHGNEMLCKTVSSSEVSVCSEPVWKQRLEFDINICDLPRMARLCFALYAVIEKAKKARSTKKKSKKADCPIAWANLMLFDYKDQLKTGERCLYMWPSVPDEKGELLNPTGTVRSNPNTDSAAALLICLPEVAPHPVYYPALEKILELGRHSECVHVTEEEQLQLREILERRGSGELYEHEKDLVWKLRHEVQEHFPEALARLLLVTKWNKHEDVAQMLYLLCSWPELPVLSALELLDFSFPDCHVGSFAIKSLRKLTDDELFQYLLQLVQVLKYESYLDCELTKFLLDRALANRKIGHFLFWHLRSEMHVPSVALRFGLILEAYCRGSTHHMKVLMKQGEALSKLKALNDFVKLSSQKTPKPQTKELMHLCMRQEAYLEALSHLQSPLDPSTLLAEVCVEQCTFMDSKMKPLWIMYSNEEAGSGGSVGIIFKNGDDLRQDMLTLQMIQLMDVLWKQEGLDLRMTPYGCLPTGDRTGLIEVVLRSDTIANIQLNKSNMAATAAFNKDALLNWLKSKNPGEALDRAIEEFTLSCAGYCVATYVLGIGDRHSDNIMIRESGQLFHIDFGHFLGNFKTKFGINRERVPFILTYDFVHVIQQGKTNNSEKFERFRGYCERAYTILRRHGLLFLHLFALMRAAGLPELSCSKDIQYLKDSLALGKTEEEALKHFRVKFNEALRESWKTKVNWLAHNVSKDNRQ
Sequence of Mitogen-activated protein kinase 12 (Homo sapiens) (P53778 whole entry): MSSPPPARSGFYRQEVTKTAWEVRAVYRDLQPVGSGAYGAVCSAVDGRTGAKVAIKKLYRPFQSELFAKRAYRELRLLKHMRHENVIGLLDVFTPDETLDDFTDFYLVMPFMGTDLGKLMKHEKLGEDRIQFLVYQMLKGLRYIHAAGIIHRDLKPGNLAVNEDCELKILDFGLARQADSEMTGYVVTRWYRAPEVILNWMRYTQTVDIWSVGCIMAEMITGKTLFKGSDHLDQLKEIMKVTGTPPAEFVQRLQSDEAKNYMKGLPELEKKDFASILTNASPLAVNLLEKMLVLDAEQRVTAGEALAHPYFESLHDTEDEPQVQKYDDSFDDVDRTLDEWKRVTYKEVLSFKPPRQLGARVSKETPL
Sequence of Phosphorylase b kinase gamma catalytic chain, liver/testis isoform (Homo sapiens) (P15735 whole entry, canonical isoform): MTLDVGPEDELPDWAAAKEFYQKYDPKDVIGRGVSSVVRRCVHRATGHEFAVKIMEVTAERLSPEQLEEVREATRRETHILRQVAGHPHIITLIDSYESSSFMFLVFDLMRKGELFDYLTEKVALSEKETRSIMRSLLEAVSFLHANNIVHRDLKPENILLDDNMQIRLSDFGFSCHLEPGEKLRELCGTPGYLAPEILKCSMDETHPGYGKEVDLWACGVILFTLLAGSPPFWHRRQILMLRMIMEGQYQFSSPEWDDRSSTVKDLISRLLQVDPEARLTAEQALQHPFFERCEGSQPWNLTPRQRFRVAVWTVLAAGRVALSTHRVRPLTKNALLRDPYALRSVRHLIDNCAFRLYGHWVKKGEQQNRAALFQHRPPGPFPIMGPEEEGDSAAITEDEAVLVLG
Sequence of Ribosomal protein S6 kinase alpha-1 (Homo sapiens) (Q15418 whole entry): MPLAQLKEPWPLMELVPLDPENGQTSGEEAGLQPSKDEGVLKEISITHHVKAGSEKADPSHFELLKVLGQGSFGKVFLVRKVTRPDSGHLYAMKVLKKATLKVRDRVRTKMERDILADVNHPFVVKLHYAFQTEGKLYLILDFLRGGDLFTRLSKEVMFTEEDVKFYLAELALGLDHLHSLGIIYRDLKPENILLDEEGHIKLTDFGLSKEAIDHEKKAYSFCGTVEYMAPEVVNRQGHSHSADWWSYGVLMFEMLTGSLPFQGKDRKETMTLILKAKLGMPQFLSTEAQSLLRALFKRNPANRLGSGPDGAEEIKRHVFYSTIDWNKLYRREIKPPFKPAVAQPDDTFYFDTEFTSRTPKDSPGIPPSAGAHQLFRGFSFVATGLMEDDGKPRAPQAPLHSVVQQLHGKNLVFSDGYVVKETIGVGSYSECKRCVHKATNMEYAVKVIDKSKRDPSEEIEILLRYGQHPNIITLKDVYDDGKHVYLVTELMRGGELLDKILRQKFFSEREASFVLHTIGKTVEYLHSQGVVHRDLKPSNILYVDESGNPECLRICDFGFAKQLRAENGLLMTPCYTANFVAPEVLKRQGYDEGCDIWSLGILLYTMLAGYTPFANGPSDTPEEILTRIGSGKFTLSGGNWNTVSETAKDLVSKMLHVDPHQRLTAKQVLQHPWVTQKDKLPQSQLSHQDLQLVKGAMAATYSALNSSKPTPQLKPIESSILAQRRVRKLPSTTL
Sequence of Serine/threonine-protein kinase 26 (Homo sapiens) (Q9P289 2-416 limits assumed): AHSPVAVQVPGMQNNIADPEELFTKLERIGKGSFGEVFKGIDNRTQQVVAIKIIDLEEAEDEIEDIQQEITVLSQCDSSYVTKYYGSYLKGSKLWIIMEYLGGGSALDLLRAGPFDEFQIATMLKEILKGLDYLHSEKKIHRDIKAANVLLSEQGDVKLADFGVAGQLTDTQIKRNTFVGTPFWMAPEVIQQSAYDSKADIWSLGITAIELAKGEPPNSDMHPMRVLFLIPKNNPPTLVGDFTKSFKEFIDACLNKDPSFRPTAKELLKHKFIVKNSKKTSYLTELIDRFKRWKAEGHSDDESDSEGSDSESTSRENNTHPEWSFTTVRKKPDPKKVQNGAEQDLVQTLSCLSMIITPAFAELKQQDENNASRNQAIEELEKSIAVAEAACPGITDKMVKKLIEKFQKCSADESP
Sequence of Muscle, skeletal receptor tyrosine-protein kinase (Homo sapiens) (O15146 whole entry): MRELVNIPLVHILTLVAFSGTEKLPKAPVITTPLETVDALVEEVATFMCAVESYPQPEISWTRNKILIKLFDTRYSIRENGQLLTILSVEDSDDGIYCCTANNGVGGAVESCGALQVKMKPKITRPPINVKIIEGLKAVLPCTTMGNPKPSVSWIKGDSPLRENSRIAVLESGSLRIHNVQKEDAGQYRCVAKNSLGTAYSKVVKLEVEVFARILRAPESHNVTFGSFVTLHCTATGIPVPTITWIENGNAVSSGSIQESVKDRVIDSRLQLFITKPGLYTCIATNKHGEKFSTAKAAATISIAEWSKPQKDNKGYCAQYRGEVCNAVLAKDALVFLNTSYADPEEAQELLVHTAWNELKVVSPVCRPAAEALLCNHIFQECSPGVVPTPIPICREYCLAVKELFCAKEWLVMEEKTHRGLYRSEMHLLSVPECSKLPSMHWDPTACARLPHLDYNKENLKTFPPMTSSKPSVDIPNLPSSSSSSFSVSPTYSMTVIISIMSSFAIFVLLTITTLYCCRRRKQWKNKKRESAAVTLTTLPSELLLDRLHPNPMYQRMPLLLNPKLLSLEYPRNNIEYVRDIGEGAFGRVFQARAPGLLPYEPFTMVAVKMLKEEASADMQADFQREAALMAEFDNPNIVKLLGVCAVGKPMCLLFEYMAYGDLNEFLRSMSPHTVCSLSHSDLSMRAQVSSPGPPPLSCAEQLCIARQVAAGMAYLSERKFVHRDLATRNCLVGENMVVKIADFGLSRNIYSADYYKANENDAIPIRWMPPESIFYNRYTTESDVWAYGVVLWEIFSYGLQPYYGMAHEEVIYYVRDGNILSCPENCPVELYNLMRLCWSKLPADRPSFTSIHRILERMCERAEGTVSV

Consider `COCCNc1nc2ccc(C#CC3(O)CCCCC3)cc2n1-c1ccnc(N)n1`, for which the inhibition in assay [1] was 4%; in [2], 6.3%; in [3], 8.8%; in assay [4], -2.8%; in assay [5], 1.1%; in [6], 0.5%. In addition, the inhibition in assay [7] was 22.8%; in [8], 6.5%; in assay [9], 9.8%; in assay [10] it was 1.4%; in assay [11], 4.3%; in [12], 8.1%. In addition, the inhibition in [13] was 12.3%; in [14], 1.9%; in assay [15], 0.8%; in [16] it was -2%; in assay [17], 3.3%; in assay [18], -2%. The inhibition in assay [19] was -1%; in assay [20], 4.3%; in assay [21] it was -4.8%; in assay [22], 9.8%; in assay [23], 5%; in assay [24], 9.8%. The inhibition is 5.5% in assay [25]; 3.6% in assay [26]; 0% in [27]; 0.5% in assay [28]; 11.7% in [29]; 2.5% in assay [30]. In addition, the results for the inhibition in assay [31], in assay [32] and in [33] were 17.3%, 11.3% and 6.7%, respectively.

Turning to `CN1CCc2cc(-c3cnc4[nH]cc(C(=O)c5ccccc5Cl)c4c3)ccc2C1`, the inhibition in [34] worked out at 17%; in assay [35], 38.3%; in [36], 101%; in [37], 82%; in assay [38], 13%; against TAK1/TAB1 (Homo sapiens), 27.9%.

For orientation: inhibition means the change of the read-out against control, counted positive when it falls.
